{"source": "paper PMC6440464", "about": "(PeerJ, 2019)", "key": {"[1]": {"assay": "Stability of the analytes in rat plasma QC samples at different storage conditions", "format": "in vitro ADME", "details": "for Post-preparation stability (4℃ for 24 h) Measured Conc.: extracted plasma samples in auto sampler rack; for Post-preparation stability (4℃ for 24 h) Measured Conc. / Free-thaw stability (3 free-thaw cycles) Measured Conc. / Long-term stability (-80℃ for 15 d) Measured Conc. / Short-term stability (25℃ for 12 h) Measured Conc.: n=5; for Free-thaw stability, Test Conc., AV / Free-thaw stability, Test Conc. / Post-preparation stability, Test Conc., AV / Post-preparation stability, Test Conc. / Short-term stability, Test Conc., AV / Short-term stability, Test Conc. / Long-term stability, Test Conc., AV / Long-term stability, Test Conc.: plasma; for Free-thaw stability, Test Conc., AV / Free-thaw stability, Test Conc.: 3 free-thaw cycles; for Free-thaw stability, Test Conc., AV / Post-preparation stability, Test Conc., AV / Short-term stability, Test Conc., AV / Long-term stability, Test Conc., AV: AV of 5 replicates; for Free-thaw stability, Test Conc. / Post-preparation stability, Test Conc. / Short-term stability, Test Conc. / Long-term stability, Test Conc.: single replicates NO.1-NO.5, listed as Quercetin-3-O-β-D-glucuronide (QG); for Post-preparation stability, Test Conc., AV / Post-preparation stability, Test Conc.: 4℃ for 24 h; for Short-term stability, Test Conc., AV / Short-term stability, Test Conc.: 25℃ for 12 h; for Long-term stability, Test Conc., AV / Long-term stability, Test Conc.: -80℃ for 15 d; for Free-thaw stability (3 free-thaw cycles) Measured Conc. / Long-term stability (-80℃ for 15 d) Measured Conc. / Short-term stability (25℃ for 12 h) Measured Conc.: rat plasma", "experimental": "The stabilities of Qr, IQ, and QG in plasma were assessed by analyzing QC samples at different storage conditions. The stabilities of three flavonoids in plasma were studied by analyzing three concentration levels of QC samples (n = 5) at room temperature (25 °C) for 12 h, at long-term storage (−80 °C for 15 days), after three freeze (−80 °C) and thaw (room temperature) cycles, and at auto sampler rack storage (4 °C for 24 h)."}, "[2]": {"design": "method as in Yoshino et al., 2011", "details": "ref Yoshino et al., 2011; cited from earlier work"}, "lipid peroxidation": {"tested_on": "lipid peroxidation", "design": "method as in Shirai et al., 2001", "details": "10 mM; ref Shirai et al., 2001; cited from earlier work"}, "[3]": {"details": "high QC, nominal 8400.0 (Qr), 976.0 (IQ), 10000.0 (QG) ng/mL"}, "[4]": {"details": "low QC, nominal 65.6 (Qr), 48.8 (IQ), 100.0 (QG) ng/mL"}, "[5]": {"details": "medium QC, nominal 525.0 (Qr), 244.0 (IQ), 1000.0 (QG) ng/mL"}}, "note": "“And” between values parts separate entries of the source, which are not always exact repeats. Equal values may be shown once.", "data": [{"smiles": "O=C(O)[C@H]1O[C@@H](Oc2c(-c3ccc(O)c(O)c3)oc3cc(O)cc(O)c3c2=O)[C@H](O)[C@@H](O)[C@@H]1O", "note": "[QG, Quercetin-3-O-β-D-glucuronide]", "values": [{"measurement": "Post-preparation stability (4℃ for 24 h) Measured Conc.", "setting": "[1]; [3]", "result": "9409.6 ± 569.5", "unit": "ng/mL"}, {"measurement": "Post-preparation stability (4℃ for 24 h) Measured Conc.", "setting": "[1]; [4]", "result": "97.2 ± 6.0", "unit": "ng/mL"}, {"measurement": "Post-preparation stability (4℃ for 24 h) Measured Conc.", "setting": "[1]", "result": "910.7 ± 68.0", "unit": "ng/mL"}, {"measurement": "Free-thaw stability, Test Conc., AV", "setting": "[1]; nominal Conc. 100.00 ng/mL", "result": 98.37, "unit": "ng/mL"}, {"measurement": "Free-thaw stability, Test Conc.", "setting": "[1]; nominal Conc. 100.00 ng/mL", "result": "105.25 ng/mL and 86.98 ng/mL and 102.05 ng/mL and 100.21 ng/mL and 97.34 ng/mL"}, {"measurement": "Free-thaw stability, Test Conc., AV", "setting": "[1]; nominal Conc. 1000.00 ng/mL", "result": 954.92, "unit": "ng/mL"}, {"measurement": "Free-thaw stability, Test Conc.", "setting": "[1]; nominal Conc. 1000.00 ng/mL", "result": "860.30 ng/mL and 851.00 ng/mL and 988.40 ng/mL and 1022.10 ng/mL and 1052.80 ng/mL"}, {"measurement": "Free-thaw stability, Test Conc., AV", "setting": "[1]; nominal Conc. 10000.00 ng/mL", "result": 9353.20, "unit": "ng/mL"}, {"measurement": "Free-thaw stability, Test Conc.", "setting": "[1]; nominal Conc. 10000.00 ng/mL", "result": "8753.00 ng/mL and 9439.00 ng/mL and 10058.00 ng/mL and 9832.00 ng/mL and 8684.00 ng/mL"}, {"measurement": "Post-preparation stability, Test Conc., AV", "setting": "[1]; nominal Conc. 100.00 ng/mL", "result": 97.18, "unit": "ng/mL"}, {"measurement": "Post-preparation stability, Test Conc.", "setting": "[1]; nominal Conc. 100.00 ng/mL", "result": "105.22 ng/mL and 101.31 ng/mL and 93.07 ng/mL and 95.83 ng/mL and 90.49 ng/mL"}, {"measurement": "Post-preparation stability, Test Conc., AV", "setting": "[1]; nominal Conc. 1000.00 ng/mL", "result": 910.72, "unit": "ng/mL"}, {"measurement": "Post-preparation stability, Test Conc.", "setting": "[1]; nominal Conc. 1000.00 ng/mL", "result": "905.70 ng/mL and 890.50 ng/mL and 1027.40 ng/mL and 853.70 ng/mL and 876.30 ng/mL"}, {"measurement": "Post-preparation stability, Test Conc., AV", "setting": "[1]; nominal Conc. 10000.00 ng/mL", "result": 9409.60, "unit": "ng/mL"}, {"measurement": "Post-preparation stability, Test Conc.", "setting": "[1]; nominal Conc. 10000.00 ng/mL", "result": "8728.00 ng/mL and 8919.00 ng/mL and 9825.00 ng/mL and 10046.00 ng/mL and 9530.00 ng/mL"}, {"measurement": "Short-term stability, Test Conc., AV", "setting": "[1]; nominal Conc. 100.00 ng/mL", "result": 89.29, "unit": "ng/mL"}, {"measurement": "Short-term stability, Test Conc.", "setting": "[1]; nominal Conc. 100.00 ng/mL", "result": "86.17 ng/mL and 83.32 ng/mL and 97.85 ng/mL and 94.48 ng/mL and 84.64 ng/mL"}, {"measurement": "Short-term stability, Test Conc., AV", "setting": "[1]; nominal Conc. 1000.00 ng/mL", "result": 943.20, "unit": "ng/mL"}, {"measurement": "Short-term stability, Test Conc.", "setting": "[1]; nominal Conc. 1000.00 ng/mL", "result": "905.00 ng/mL and 917.50 ng/mL and 1029.40 ng/mL and 991.30 ng/mL and 872.80 ng/mL"}, {"measurement": "Short-term stability, Test Conc., AV", "setting": "[1]; nominal Conc. 10000.00 ng/mL", "result": 9334.60, "unit": "ng/mL"}, {"measurement": "Short-term stability, Test Conc.", "setting": "[1]; nominal Conc. 10000.00 ng/mL", "result": "9717.00 ng/mL and 8935.00 ng/mL and 9106.00 ng/mL and 9353.00 ng/mL and 9562.00 ng/mL"}, {"measurement": "Long-term stability, Test Conc., AV", "setting": "[1]; nominal Conc. 100.00 ng/mL", "result": 98.57, "unit": "ng/mL"}, {"measurement": "Long-term stability, Test Conc.", "setting": "[1]; nominal Conc. 100.00 ng/mL", "result": "87.09 ng/mL and 91.05 ng/mL and 96.73 ng/mL and 107.32 ng/mL and 110.64 ng/mL"}, {"measurement": "Long-term stability, Test Conc., AV", "setting": "[1]; nominal Conc. 1000.00 ng/mL", "result": 941.48, "unit": "ng/mL"}, {"measurement": "Long-term stability, Test Conc.", "setting": "[1]; nominal Conc. 1000.00 ng/mL", "result": "839.70 ng/mL and 1104.80 ng/mL and 874.40 ng/mL and 932.10 ng/mL and 956.40 ng/mL"}, {"measurement": "Long-term stability, Test Conc., AV", "setting": "[1]; nominal Conc. 10000.00 ng/mL", "result": 9985.00, "unit": "ng/mL"}, {"measurement": "Long-term stability, Test Conc.", "setting": "[1]; nominal Conc. 10000.00 ng/mL", "result": "10543.00 ng/mL and 10195.00 ng/mL and 11086.00 ng/mL and 9530.00 ng/mL and 8571.00 ng/mL"}, {"measurement": "Free-thaw stability (3 free-thaw cycles) Measured Conc.", "setting": "[1]; [3]", "result": "9353.2 ± 620.8", "unit": "ng/mL"}, {"measurement": "Long-term stability (-80℃ for 15 d) Measured Conc.", "setting": "[1]; [3]", "result": "9985.0 ± 971.4", "unit": "ng/mL"}, {"measurement": "Short-term stability (25℃ for 12 h) Measured Conc.", "setting": "[1]; [3]", "result": "9334.6 ± 320.2", "unit": "ng/mL"}, {"measurement": "Free-thaw stability (3 free-thaw cycles) Measured Conc.", "setting": "[1]; [4]", "result": "98.4 ± 7.0", "unit": "ng/mL"}, {"measurement": "Long-term stability (-80℃ for 15 d) Measured Conc.", "setting": "[1]; [4]", "result": "98.6 ± 10.2", "unit": "ng/mL"}, {"measurement": "Short-term stability (25℃ for 12 h) Measured Conc.", "setting": "[1]; [4]", "result": "89.3 ± 6.5", "unit": "ng/mL"}, {"measurement": "Free-thaw stability (3 free-thaw cycles) Measured Conc.", "setting": "[1]; [5]", "result": "954.9 ± 93.5", "unit": "ng/mL"}, {"measurement": "Long-term stability (-80℃ for 15 d) Measured Conc.", "setting": "[1]; [5]", "result": "941.5 ± 102.3", "unit": "ng/mL"}, {"measurement": "Short-term stability (25℃ for 12 h) Measured Conc.", "setting": "[1]; [5]", "result": "943.2 ± 64.9", "unit": "ng/mL"}, {"measurement": "Toxicity compared with its aglycone", "setting": "[2]", "result": "much less toxic"}, {"measurement": "Inhibition of lipid peroxidation", "setting": "lipid peroxidation", "result": "can inhibit lipid peroxidation"}]}]}
